Laboratory results: patent publication US8927501B2, “αvβ6 peptide ligands and their uses” (priority 2005, dated 2015)
Where a SMILES comes first, the peptide text is derived from it. Where no end group is shown, it is not given here. The star is where a group is joined. Biotin = O=C1N[C@H]2[C@H](CS[C@H]2CCCCC(=O)*)N1; Ahx = NCCCCCC(=O)O

Key:
αvβ6 [1] = molecular target: T1, αvβ6 (Homo sapiens, UniProt P06756+P18564); assay: Cell adhesion assay: αvβ6-dependent adhesion of VB6 cells to LAP; format: cell-based
T1 construct: endogenous in cells; host or cells: VB6 human oral squamous cell carcinoma
T1 sequence (P06756 31-1048): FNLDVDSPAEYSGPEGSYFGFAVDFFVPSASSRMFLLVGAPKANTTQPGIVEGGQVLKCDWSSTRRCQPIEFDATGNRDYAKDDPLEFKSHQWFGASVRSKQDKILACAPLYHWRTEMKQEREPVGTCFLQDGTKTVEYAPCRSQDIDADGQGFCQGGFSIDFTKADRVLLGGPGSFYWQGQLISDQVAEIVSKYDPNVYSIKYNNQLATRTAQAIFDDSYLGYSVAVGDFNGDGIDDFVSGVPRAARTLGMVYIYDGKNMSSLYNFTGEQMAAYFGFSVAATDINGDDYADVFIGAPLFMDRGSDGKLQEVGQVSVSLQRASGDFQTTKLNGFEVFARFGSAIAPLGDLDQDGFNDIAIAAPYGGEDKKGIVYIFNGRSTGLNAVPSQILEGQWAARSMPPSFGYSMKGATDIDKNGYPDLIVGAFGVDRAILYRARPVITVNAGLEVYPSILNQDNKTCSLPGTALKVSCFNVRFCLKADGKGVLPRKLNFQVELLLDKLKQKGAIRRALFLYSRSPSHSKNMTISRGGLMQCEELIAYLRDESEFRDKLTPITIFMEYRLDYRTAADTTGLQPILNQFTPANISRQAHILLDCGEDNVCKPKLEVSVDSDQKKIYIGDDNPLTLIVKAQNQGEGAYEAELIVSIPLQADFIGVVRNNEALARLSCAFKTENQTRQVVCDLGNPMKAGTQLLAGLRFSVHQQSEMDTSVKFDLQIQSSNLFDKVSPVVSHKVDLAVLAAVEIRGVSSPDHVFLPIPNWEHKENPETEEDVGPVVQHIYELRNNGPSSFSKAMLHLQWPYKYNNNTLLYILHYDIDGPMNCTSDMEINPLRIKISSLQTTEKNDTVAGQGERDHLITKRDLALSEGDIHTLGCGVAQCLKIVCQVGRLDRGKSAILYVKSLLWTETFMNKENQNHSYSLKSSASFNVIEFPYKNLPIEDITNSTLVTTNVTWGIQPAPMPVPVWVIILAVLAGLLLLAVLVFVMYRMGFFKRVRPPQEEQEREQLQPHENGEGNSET
T1 sequence (P18564 22-788): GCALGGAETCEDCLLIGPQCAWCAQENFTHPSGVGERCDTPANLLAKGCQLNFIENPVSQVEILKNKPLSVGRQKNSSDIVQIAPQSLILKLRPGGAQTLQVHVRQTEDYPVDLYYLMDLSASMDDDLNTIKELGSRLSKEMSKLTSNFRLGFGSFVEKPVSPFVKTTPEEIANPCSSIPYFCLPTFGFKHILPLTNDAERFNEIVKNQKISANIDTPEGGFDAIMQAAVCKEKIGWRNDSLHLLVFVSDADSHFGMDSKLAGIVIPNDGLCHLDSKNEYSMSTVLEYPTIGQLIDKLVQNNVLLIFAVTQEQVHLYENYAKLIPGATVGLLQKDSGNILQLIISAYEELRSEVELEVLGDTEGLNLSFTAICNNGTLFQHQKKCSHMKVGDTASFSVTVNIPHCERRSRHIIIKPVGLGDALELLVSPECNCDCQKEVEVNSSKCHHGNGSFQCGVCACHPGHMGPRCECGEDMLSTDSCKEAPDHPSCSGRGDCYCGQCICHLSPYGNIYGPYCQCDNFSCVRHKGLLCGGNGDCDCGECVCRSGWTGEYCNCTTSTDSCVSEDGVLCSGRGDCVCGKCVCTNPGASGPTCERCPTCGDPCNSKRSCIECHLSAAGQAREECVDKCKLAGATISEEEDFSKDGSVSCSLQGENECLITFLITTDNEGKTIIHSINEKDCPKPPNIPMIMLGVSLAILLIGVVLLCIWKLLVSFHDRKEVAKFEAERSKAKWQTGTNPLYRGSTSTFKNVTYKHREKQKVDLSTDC

A375Pβ6puro = format: cell-based, human
A375Ppuro = format: cell-based, human
αvβ6 [2] = molecular target: αvβ6 (UniProt P18564+P43406); assay: cell-based; parameters: species or system mouse
rsαvβ6 [3] = molecular target: T2, rsαvβ6 (Homo sapiens, UniProt P06756+P18564); assay: biochemical; format: binding
T2 sequence (P06756 31-992 limits assumed): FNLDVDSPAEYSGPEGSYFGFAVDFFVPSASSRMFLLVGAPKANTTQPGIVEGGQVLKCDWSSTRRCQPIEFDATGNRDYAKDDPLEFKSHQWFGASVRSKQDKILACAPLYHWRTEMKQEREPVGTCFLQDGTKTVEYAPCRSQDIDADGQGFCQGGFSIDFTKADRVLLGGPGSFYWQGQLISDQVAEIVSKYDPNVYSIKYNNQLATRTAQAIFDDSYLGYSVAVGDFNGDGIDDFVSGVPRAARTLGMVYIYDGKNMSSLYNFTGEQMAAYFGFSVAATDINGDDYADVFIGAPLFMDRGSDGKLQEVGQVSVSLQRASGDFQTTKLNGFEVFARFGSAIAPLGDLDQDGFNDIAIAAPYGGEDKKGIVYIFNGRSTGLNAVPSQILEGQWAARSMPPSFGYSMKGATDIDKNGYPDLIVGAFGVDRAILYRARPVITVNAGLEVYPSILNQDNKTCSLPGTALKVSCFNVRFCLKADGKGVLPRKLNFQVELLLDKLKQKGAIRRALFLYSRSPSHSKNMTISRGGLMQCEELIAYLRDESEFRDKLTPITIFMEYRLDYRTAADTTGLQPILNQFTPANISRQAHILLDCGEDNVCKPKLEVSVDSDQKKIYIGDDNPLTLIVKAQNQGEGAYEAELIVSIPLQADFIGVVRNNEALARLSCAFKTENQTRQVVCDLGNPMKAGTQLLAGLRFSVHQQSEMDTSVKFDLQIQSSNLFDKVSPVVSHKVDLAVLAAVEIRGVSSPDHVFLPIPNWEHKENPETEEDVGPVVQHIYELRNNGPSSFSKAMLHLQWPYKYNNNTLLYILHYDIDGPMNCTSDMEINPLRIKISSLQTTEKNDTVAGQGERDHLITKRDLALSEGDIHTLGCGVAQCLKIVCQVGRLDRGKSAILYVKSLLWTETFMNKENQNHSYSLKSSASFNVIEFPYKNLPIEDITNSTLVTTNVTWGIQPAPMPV
T2 sequence (P18564 22-709 limits assumed): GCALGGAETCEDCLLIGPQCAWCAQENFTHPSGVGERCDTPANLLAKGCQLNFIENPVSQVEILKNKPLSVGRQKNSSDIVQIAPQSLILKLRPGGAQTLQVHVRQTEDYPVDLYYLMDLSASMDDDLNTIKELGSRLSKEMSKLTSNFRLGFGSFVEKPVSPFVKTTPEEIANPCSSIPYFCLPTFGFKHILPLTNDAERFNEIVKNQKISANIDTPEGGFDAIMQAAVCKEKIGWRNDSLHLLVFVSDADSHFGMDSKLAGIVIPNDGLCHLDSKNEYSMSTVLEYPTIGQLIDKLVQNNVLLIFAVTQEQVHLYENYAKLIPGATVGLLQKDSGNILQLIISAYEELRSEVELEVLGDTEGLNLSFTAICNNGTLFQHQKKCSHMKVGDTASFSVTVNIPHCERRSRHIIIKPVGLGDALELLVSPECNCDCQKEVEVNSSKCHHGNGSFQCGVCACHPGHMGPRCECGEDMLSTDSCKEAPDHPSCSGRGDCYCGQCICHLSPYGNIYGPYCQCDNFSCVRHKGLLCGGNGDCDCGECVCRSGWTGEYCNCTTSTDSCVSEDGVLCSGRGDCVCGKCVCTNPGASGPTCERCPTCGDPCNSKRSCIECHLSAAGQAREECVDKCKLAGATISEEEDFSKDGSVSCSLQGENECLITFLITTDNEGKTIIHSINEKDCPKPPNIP

rsαvβ6 [4] = molecular target: T2, rsαvβ6; assay: biochemical; format: binding; remark: listed apart in the source

CC(C)C[C@H](NC(=O)[C@H](Cc1cnc[nH]1)NC(=O)[C@H](CCCNC(=N)N)NC(=O)[C@H](C)NC(=O)[C@H](Cc1cnc[nH]1)NC(=O)[C@@H](NC(=O)[C@@H](NC(=O)[C@@H](NC(=O)[C@H](CC(C)C)NC(=O)[C@H](Cc1cnc[nH]1)NC(=O)[C@H](C)NC(=O)[C@H](CC(C)C)NC(=O)[C@H](CC(=O)O)NC(=O)CNC(=O)[C@H](CCCNC(=N)N)NC(=O)[C@H](C)NC(=O)[C@H](CO)NC(=O)[C@H](C)NC(=O)[C@@H](NC(=O)[C@@H](N)Cc1ccc(O)cc1)[C@@H](C)O)[C@@H](C)O)[C@@H](C)O)[C@@H](C)O)C(=O)O [A20FMDV1]
IC50 (αvβ6 [1]): 38200 ± 31100 nM
binding to A375Pβ6puro (A375Pβ6puro): binding to A375Pβ6puro at 1 μM
binding to A375Ppuro (A375Ppuro): did not bind to A375Ppuro

CC(C)C[C@H](NC(=O)[C@H](CC(=O)O)NC(=O)CNC(=O)[C@H](CCCNC(=N)N)NC(=O)[C@H](C)NC(=O)[C@H](C)NC(=O)[C@H](C)NC(=O)[C@@H](N)CO)C(=O)N[C@@H](CCC(=O)O)C(=O)N[C@@H](CCC(N)=O)C(=O)N[C@@H](CC(C)C)C(=O)N[C@H](C(=O)N[C@@H](CO)C(=O)N[C@@H](CC(C)C)C(=O)N[C@@H](CC(C)C)C(=O)N[C@@H](CCC(N)=O)C(=O)N[C@@H](CC(N)=O)C(=O)N[C@@H](CC(N)=O)C(=O)N[C@H](C(=O)N[C@@H](CC(N)=O)C(=O)O)C(C)C)[C@@H](C)O [P-INK] (H-SAAARGDLEQLTSLLQNNVN-OH; N-terminus assumed)
inhibition of αvβ6-dependent adhesion / binding affinity to αvβ6 (αvβ6 [2]): inhibited αvβ6-dependent adhesion

SAAARGDLEQLTSLLQNNVNV [P18-INK]
inhibition of αvβ6-dependent adhesion / binding affinity to αvβ6 (αvβ6 [2]): significantly greater than that of DD19

CC(C)C[C@@H]1NC(=O)[C@H](CC(=O)O)NC(=O)CNC(=O)[C@H](CCCNC(=N)N)NC(=O)[C@H](CC(C)C)NC(=O)[C@H](CC(N)=O)NC(=O)[C@@H]2CCCN2C(=O)[C@@H](NC(=O)[C@@H](CCCCN)NC(=O)[C@@H](Cc2ccc(O)cc2)NC(=O)[C@@H](CCC(=O)O)NC(=O)CCCCCNC(=O)CCCC[C@@H]2SC[C@@H]3NC(=O)N[C@@H]32)CSSC[C@@H](C(=O)N[C@@H](CCCNC(=N)N)C(=O)N[C@H](C(=O)N[C@@H](CCCCN)C(=O)O)[C@@H](C)O)NC(=O)[C@H](C(C)C)NC(=O)[C@H](CCCCN)NC(=O)[C@H](CCC(N)=O)NC(=O)[C@H](C)NC(=O)[C@H](CC(C)C)NC(=O)[C@H](C(C)C)NC(=O)[C@H](CCC(N)=O)NC1=O [B-DBD1]
EC50 (rsαvβ6 [3]): 0.69 nM
binding of biotinylated peptide to immobilised rsαvβ6 (rsαvβ6 [3]): concentration-dependent binding
binding to A375Pβ6 in the presence of 63G9 (A375Pβ6puro): greatly reduced
binding to A375Pβ6 in the presence of control IgG (A375Pβ6puro): bound strongly
binding to A375Pβ6puro (A375Pβ6puro): high levels of binding at concentrations as low as 1 nM
binding to A375Ppuro (A375Ppuro): only low levels of binding

CC[C@H](C)[C@H](NC(=O)[C@@H](NC(=O)[C@H](C)NC(=O)[C@H](CC(C)C)NC(=O)[C@H](CC(=O)O)NC(=O)CNC(=O)[C@H](CCCNC(=N)N)NC(=O)[C@H](CCCNC(=N)N)NC(=O)CNC(=O)[C@@H](NC(=O)[C@@H](NC(=O)[C@H](Cc1ccccc1)NC(=O)CN)[C@@H](C)O)[C@@H](C)O)[C@@H](C)O)C(=O)N[C@@H](Cc1cnc[nH]1)C(=O)NCC(=O)N[C@@H](CCSC)C(=O)N[C@@H](CC(N)=O)C(=O)N[C@@H](CCCNC(=N)N)C(=O)N1CCC[C@H]1C(=O)N[C@@H](Cc1ccccc1)C(=O)O [A20LAP]
IC50 (αvβ6 [1]): 28700 ± 11000 nM
effect on VB6 adhesion to LAP (αvβ6 [1]): completely blocks cell adhesion
binding of biotinylated peptide to immobilised rsαvβ6 (rsαvβ6 [3]): bound more than A20FMDV1
adhesion of 3T3β6.19 to LAP, % of control cell adhesion (αvβ6 [2]): 32±7%
binding to A375Pβ6puro (A375Pβ6puro): bound to both cell lines at 10 μM and 1 μM
binding to A375Ppuro (A375Ppuro): bound to both cell lines at 10 μM and 1 μM

CC(C)C[C@H](NC(=O)[C@H](CC(=O)O)NC(=O)CNC(=O)[C@H](CCCNC(=N)N)NC(=O)[C@H](CC(C)C)NC(=O)[C@H](CC(N)=O)NC(=O)[C@@H]1CCCN1C(=O)[C@@H](N)C(C)C)C(=O)N[C@@H](CCC(N)=O)C(=O)N[C@H](C(=O)N[C@@H](CC(C)C)C(=O)N[C@@H](C)C(=O)O)C(C)C [DD19]
IC50 (rsαvβ6 [4]): 85 nM
VB6 adhesion to LAP in the presence of peptide (αvβ6 [1]): the same as adhesion in the absence of peptide
IC50 (αvβ6 [2]): 190000 nM

CC(C)C[C@H](NC(=O)[C@H](CC(=O)O)NC(=O)CNC(=O)[C@H](CCCNC(=N)N)NC(=O)[C@H](CC(C)C)NC(=O)[C@H](CC(N)=O)NC(=O)[C@@H]1CCCN1C(=O)[C@@H](NC(=O)[C@H](C)NC(=O)[C@@H](N)CC(N)=O)C(C)C)C(=O)N[C@@H](CCC(N)=O)C(=O)N[C@H](C(=O)N[C@@H](CC(C)C)C(=O)N[C@@H](C)C(=O)N[C@@H](CCC(N)=O)C(=O)N[C@@H](CCCCN)C(=O)N[C@H](C(=O)N[C@@H](C)C(=O)N[C@@H](CCCNC(=N)N)C(=O)N[C@H](C(=O)O)[C@@H](C)O)C(C)C)C(C)C [A20FMDV2]
binding to A375Pβ6puro (A375Pβ6puro): observed at 10 μM, 1μM, 0.1 μM, 0.01 μM and 0.00 μM
differential binding A375Pβ6puro versus A375Ppuro (A375Pβ6puro): four orders of magnitude
binding to A375Ppuro (A375Ppuro): only at 10 μM

CC[C@H](C)[C@H](NC(=O)[C@@H](NC(=O)[C@H](C)NC(=O)[C@H](CC(C)C)NC(=O)[C@H](CC(=O)O)NC(=O)CNC(=O)[C@H](CCCNC(=N)N)NC(=O)[C@@H](N)CCCNC(=N)N)[C@@H](C)O)C(=O)N[C@@H](Cc1c[nH]cn1)C(=O)O [DD1]
IC50 (αvβ6 [2]): 216000 nM
adhesion of 3T3β6.19 to LAP, % of control cell adhesion (αvβ6 [2]): 57±4%

Biotin-εAhx-eykCKLVGALQPDNVLQRCRTK [B-Ran, reference compound]
binding of biotinylated peptide to immobilised rsαvβ6 (rsαvβ6 [3]): did not show any binding
binding to A375Pβ6 in the presence of 63G9 (A375Pβ6puro): did not bind
binding to A375Pβ6 in the presence of control IgG (A375Pβ6puro): did not bind
binding to A375Pβ6puro (A375Pβ6puro): did not bind
binding to A375Ppuro (A375Ppuro): did not bind

CC[C@H](C)[C@H](NC(=O)[C@@H](NC(=O)[C@H](C)NC(=O)[C@H](CC(C)C)NC(=O)[C@H](CC(=O)O)NC(=O)CNC(=O)[C@H](CCCNC(=N)N)NC(=O)[C@H](CCCNC(=N)N)NC(=O)CNC(=O)[C@@H](N)[C@@H](C)O)[C@@H](C)O)C(=O)O [DD3] (H-TGRRGDLATI-OH; N-terminus and C-terminus assumed)
IC50 (rsαvβ6 [4]): 22.6 nM
effect on VB6 adhesion to LAP (αvβ6 [1]): little effect
adhesion of 3T3β6.19 to LAP, % of control cell adhesion (αvβ6 [2]): 79±22%

CC[C@H](C)[C@H](NC(=O)[C@@H](NC(=O)[C@H](C)NC(=O)[C@H](CC(C)C)NC(=O)[C@H](CC(=O)O)NC(=O)CNC(=O)[C@H](CCCNC(=N)N)NC(=O)[C@H](CCCNC(=N)N)NC(=O)CNC(=O)[C@@H](NC(=O)[C@@H](NC(=O)[C@@H](N)Cc1ccccc1)[C@@H](C)O)[C@@H](C)O)[C@@H](C)O)C(=O)O [DD2] (H-FTTGRRGDLATI-OH; N-terminus and C-terminus assumed)
IC50 (rsαvβ6 [4]): 30.9 nM
effect on VB6 adhesion to LAP (αvβ6 [1]): little effect

{Biotin-Ahx}-PGRTFHRFGMGAITRTGNDL [B-A20LAP-Ran, reference compound]
binding of biotinylated peptide to immobilised rsαvβ6 (rsαvβ6 [3]): did show binding at 10 μM and 1 μM

CC(C)C[C@@H]1NC(=O)[C@H](CC(=O)O)NC(=O)CNC(=O)[C@H](CCCNC(=N)N)NC(=O)[C@H](CC(C)C)NC(=O)[C@H](CC(N)=O)NC(=O)[C@@H]2CCCN2C(=O)[C@H](C(C)C)NC(=O)[C@H](Cc2ccc(O)cc2)NC(=O)[C@@H](NC(=O)CCCCCNC(=O)CCCC[C@@H]2SC[C@@H]3NC(=O)N[C@@H]32)CSSC[C@@H](C(=O)O)NC(=O)[C@H](CCCCN)NC(=O)[C@H](C)NC(=O)[C@H](C(C)C)NC(=O)[C@H](CCCCN)NC(=O)[C@H](CCC(N)=O)NC(=O)[C@H](C)NC(=O)[C@H](CC(C)C)NC(=O)[C@H](C(C)C)NC(=O)[C@H](CCC(N)=O)NC1=O [B-DBD2]
EC50 (rsαvβ6 [3]): 1.7 nM
binding of biotinylated peptide to immobilised rsαvβ6 (rsαvβ6 [3]): concentration-dependent binding
binding to A375Pβ6 in the presence of 63G9 (A375Pβ6puro): completely abolished
binding to A375Pβ6 in the presence of control IgG (A375Pβ6puro): bound strongly
binding to A375Pβ6puro (A375Pβ6puro): high levels of binding at concentrations as low as 1 nM
binding to A375Ppuro (A375Ppuro): only low levels of binding

CC(C)C[C@H](NC(=O)[C@H](CC(=O)O)NC(=O)CNC(=O)[C@H](CCCNC(=N)N)NC(=O)[C@H](CC(C)C)NC(=O)[C@H](CC(N)=O)NC(=O)[C@@H]1CCCN1C(=O)[C@@H](NC(=O)[C@H](C)NC(=O)[C@H](CC(N)=O)NC(=O)CCCCCNC(=O)CCCC[C@@H]1SC[C@@H]2NC(=O)N[C@@H]21)C(C)C)C(=O)N[C@@H](CCC(N)=O)C(=O)N[C@H](C(=O)N[C@@H](CC(C)C)C(=O)N[C@@H](C)C(=O)N[C@@H](CCC(N)=O)C(=O)N[C@@H](CCCCN)C(=O)N[C@H](C(=O)N[C@@H](C)C(=O)N[C@@H](CCCNC(=N)N)C(=O)N[C@H](C(=O)O)[C@@H](C)O)C(C)C)C(C)C [B-A20FMDV2]
binding to A375Pβ6 in the presence of 63G9 (A375Pβ6puro): completely abolished
binding to A375Pβ6 in the presence of control IgG (A375Pβ6puro): bound strongly
binding to A375Pβ6puro (A375Pβ6puro): high levels of binding at concentrations as low as 1 nM
binding to A375Ppuro (A375Ppuro): only low levels of binding

CC(C)C[C@H](NC(=O)[C@H](CC(=O)O)NC(=O)CNC(=O)[C@H](CCCNC(=N)N)NC(=O)[C@H](CC(C)C)NC(=O)[C@H](CC(N)=O)NC(=O)[C@@H]1CCCN1C(=O)[C@@H](NC(=O)[C@H](C)NC(=O)[C@@H](N)CC(N)=O)C(C)C)C(=O)N[C@@H](CCC(N)=O)C(=O)N[C@@H](C(=O)N[C@@H](CC(C)C)C(=O)N[C@@H](C)C(=O)N[C@@H](CCC(N)=O)C(=O)N[C@@H](CCCCN)C(=O)N[C@@H](C(=O)N[C@@H](C)C(=O)N[C@@H](CCCNC(=N)N)C(=O)N[C@H](C(=O)O)[C@@H](C)O)C(C)C)C(C)C [DV1217]
binding to A375Pβ6puro (A375Pβ6puro): bound to A375Pβ6 at 10 μM and at 1 μM
loss of anti-αvβ6 potency versus A20FMDV2 (A375Pβ6puro): 1000 fold
binding to A375Ppuro (A375Ppuro): did not bind noticeably
